Assay results: US4087421A, “Substituted benzodiazepines and method of use” (American Cyanamid Company, priority 1977, dated 1978)
“And” between values parts separate entries of the source, which are not always exact repeats. Equal values may be shown once.

What was measured:
[1] = "writhing syndrome" test for analgesic activity (phenyl p-quinone); assay type: in vivo, male Swiss albino mice; details: 6.25 mg/kg oral; control approximately 30 per pair; active if 18 or less
Method: This method is based upon the reduction of the number of writhes following the intraperitoneal injection of one mg./kg. of body weight of phenyl p-quinone in male Swiss albino mice weighing 15-25 g. The syndrome is characterized by intermittent contractions of the abdomen, twisting and turning of the trunk, and extension of the hind legs beginning 3 to 5 minutes after injection of the phenyl p-quinone. The test compounds are administered orally at the indicated dose to groups of 2 mice each, 30 minutes before injection of the phenyl p-quinone.

[2] = modified Randall and Selitto analgesic test, brewers yeast inflamed paw; assay type: in vivo, rats; details: 200 mg/Kg oral; two hours after yeast; active if T/C ≥ 1.37
Method: To determine analgesic activity, a modification of the method of Randall and Selitto [Arch. Int. […] This test measures the pain threshold of rats whose paws are made sensitive to pressure by the injection of 0.1 ml. of a 20% aqueous suspension of brewers yeast into the plantar surface of the left hind paw. Constantly increasing force (16 g/second) is applied to the swollen paw using an Analgesy Meter, Ugo Basile. The pressure is cut off at 250 g. of force when there is no response (sudden struggle or vocalization). […] Pressure-pain thresholds are always recorded two hours after administration of Brewers' yeast. Test compounds are administered at the same time as the yeast, at an oral dose of 200 mg/Kg. Ratios of treated (T)/control (C) reaction thresholds are calculated as estimates of analgesic efficacy (degree of analgesia obtainable).

[3] = reduction of spontaneous motor activity (Animax Activity Counter); assay type: in vivo; details: Rattus norvegicus, 5 min; oral, rats, 5 minute period; read-out: MDD50 (effective dose that causes a 50% reduction in motor activity)
Method: A useful test for anti-psychotic activity consists of measuring the reduction of spontaneous motor activity in animals.
Groups of 4 rats are treated orally with the test compound dissolved or suspended in starch vehicle at the maximum tolerated dose. At the estimated time of peak effect, the animals are placed singly into an Animax Activity Counter and the activity of each rat is recorded over a 5 minute period. The activity counts are compared to historical or parallel control values to determine significant increased or decreased locomotor activity.

reversible ptosis test = assay type: in vivo; details: oral, rats
Method: A useful test for anti-psychotic activity consists of measuring ptosis in animals.
Ptosis is defined as closure of the palpebral aperture (eyelid) greater than 70%. The compounds to be tested were administered orally to groups of 10 rats each. Periodically after treatment the rats were gently placed on the cage top and examined for 90 seconds for signs of ptosis. This manipulation eliminates spontaneous ptosis. The rats were then dropped from a height of about 18 inches (exteroceptive stimulation) onto the cage top to test for reversibility of ptosis. Reversible ptosis is defined as less than 70% closure of the palpebral aperture for longer than one minute after the exteroceptive stimulation and is indicative of neuroleptic activity of the drug administered.

[4] = Discrete Trial Conditioned Avoidance Test; assay type: in vivo, male Long-Evans rats; details: Rattus norvegicus, read-out: ED50 (reduces avoidance response by 50% as compared to controls); oral, male Long-Evans rats
Method: In this test the compounds are administered orally to male Long-Evans rats in a universal starch vehicle. The rats have been pre-conditioned to make a 70% avoidance response. The rats are placed in individual cages and a warning tone is sounded every 20 seconds. Each rat has the opportunity to press a bar which, if done within 5 seconds, prevents an electric shock through the grid floor of the cage and is termed an avoidance response. Each rat is given 50 trials and a score of avoidance responses is kept. The drug is administered at various dose levels. […]

SMILES: CN1CCN(C2=Nc3ccccc3Nc3cscc32)CC1 [10-(4-Methyl-1-piperazinyl)-4H-thieno[3,4-b][1,5]benzodiazepine]
- No. of Writhes Per Pair [1]: 4 and 2
- Ratio T/C (treated/control reaction thresholds) [2]: 1.57
- ED50 [3]: 6.1 mg/kg
- ED50 (dose estimated to create reversible ptosis in 50% of the animals) (reversible ptosis test): 13 mg/kg
- ED50 [4]: 7 mg/kg
